How the values were obtained:
[1] = tested on: B. megaterium QM B1551 "receptorless" spore; format: cell-based, Bacillus megaterium
[2] = tested on: antibody-immobilised spores; format: cell-based
[3] = tested on: CwlJ knock-out strain of Bacillus megaterium; format: cell-based
[4] = tested on: Bacillus megaterium QM B1551 spores; format: cell-based

Row | SMILES | germination response of receptorless spores [1] | germination response by micrographs [2] | germination in response to exogenous Ca-DPA [3] | concentration of Ca-DPA at which spores germinate [4] [mM]
1 | C[C@H](N)C(=O)O [L-alanine] | lost the ability to respond | transition from phase bright spores to phase dark | – | –
2 | O=C(O)c1cccc(C(=O)O)n1 [Ca-DPA, dipicolinic acid] | – | – | does not germinate | ~30
